The nature of the series: Solubility of sucralose in non-aqueous liquids. The format is physicochemical. The note with it: 1,3-propanediol vs propylene glycol. An excerpt:
Therefore, beverage concentrates containing sucralose may be advantageously prepared using a solvent comprising 1,3-propanediol to provide a beverage concentrate that is able to maintain sucralose in solution throughout its shelf life. In other instances, selection of NAL may also depend, at least in part, on the flavor provided by the NAL and the desired taste profile in the final beverage. In yet other instances, selection of NAL may also depend, at least in part, on the viscosity and/or the desired density of the resulting concentrate.

This note sets out measurements from patent US20130040036A1, “Shelf Stable, Low Water Liquid Beverage Concentrates And Methods Of Making The Same” (priority 2011, published 2013).

Take `OC[C@H]1O[C@H](O[C@]2(CCl)O[C@H](CCl)[C@@H](O)[C@@H]2O)[C@H](O)[C@@H](O)[C@H]1Cl` [sucralose]: the “solubility in non-aqueous liquid” value is on record as “more readily solubilized in 1,3-propanediol than in propylene glycol”.
